Key:
[1] = test system: chickweed; assay: Test Example 4: herbicidal effect by soil treatment (Table 19, symbol P); assay type: in vivo, common chickweed (Stellaria media); settings: amount of applied herbicide 320 g/ha
Procedure, shortened: (§1)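 Soil-surface application: an emulsion agent diluted with water to the predetermined dose is sprayed uniformly over seeds lying under roughly 1.5 cm of sterilized diluvial soil. Boxes stay in a greenhouse at 25° C. to 30° C. Three weeks later, each species is graded on previously defined criteria.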

[2] = test system: southern crabgrass; assay: Test Example 4: herbicidal effect by soil treatment (Table 19, symbol F); assay type: in vivo, southern crabgrass (Digitaria ciliaris); settings: amount of applied herbicide 320 g/ha
Procedure, shortened: as §1

[3] = test system: late watergrass; assay: Test Example 1: herbicidal activity, application before weed generation under submerged conditions (Table 16, symbol A); assay type: in vivo, late watergrass (Echinochloa oryzicola); settings: 320 g/ha applied herbicide
Procedure, shortened: (§2)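 Alluvial soil was flooded to 4 cm depth, weed seeds were sown mixed and 2.5-leaf rice seedlings were transplanted. On sowing day, the compound's emulsion, diluted in water to a set dose, was applied to the water surface. Plants grew at 25–30 °C and were scored 0–5 after three weeks.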

[4] = test system: barnyard grass; assay: Test Example 4: herbicidal effect by soil treatment (Table 19, symbol H); assay type: in vivo, barnyard grass (Echinochloa crus-galli); settings: amount of applied herbicide 320 g/ha
Procedure, shortened: as §1

[5] = test system: windgrass; assay: Test Example 4: herbicidal effect by soil treatment (Table 19, symbol L); assay type: in vivo, windgrass (Apera spica-venti); settings: amount of applied herbicide 320 g/ha
Procedure, shortened: as §1

[6] = test system: blackgrass; assay: Test Example 4: herbicidal effect by soil treatment (Table 19, symbol J); assay type: in vivo, blackgrass (Alopecurus myosuroides); settings: amount of applied herbicide 320 g/ha
Procedure, shortened: as §1

[7] = test system: persian speedwell; assay: Test Example 5: herbicidal effect by foliage application, plastic box (Table 20, symbol R); assay type: in vivo, Persian speedwell (Veronica persica); settings: foliage application, 320 g/ha, evaluated three weeks after application
Procedure, shortened: (§3)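 Sow seeds spot-wise in sterilized diluvial soil; cover with ~1.5 cm soil. Grow 14 days in greenhouse, 25° C. to 30° C. Spray foliage with emulsion diluted to predetermined amount. Rate effect after 3 weeks.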

[8] = test system: wild oat; assay: Test Example 5: herbicidal effect by foliage application, plastic box (Table 20, symbol I); assay type: in vivo, wild oat (Avena fatua); settings: foliage application, 320 g/ha, evaluated three weeks after application
Procedure, shortened: as §3

[9] = test system: Japanese bulrush; assay: Test Example 1: herbicidal activity, application before weed generation under submerged conditions (Table 16, symbol B); assay type: in vivo, Japanese bulrush (Schoenoplectus juncoides); settings: 320 g/ha applied herbicide
Procedure, shortened: as §2

[10] = test system: green foxtail; assay: Test Example 4: herbicidal effect by soil treatment (Table 19, symbol G); assay type: in vivo, green foxtail (Setaria viridis); settings: amount of applied herbicide 320 g/ha
Procedure, shortened: as §1

[11] = test system: lambsquarters; assay: Test Example 5: herbicidal effect by foliage application, plastic box (Table 20, symbol O); assay type: in vivo, lambsquarters (Chenopodium album); settings: foliage application, 320 g/ha, evaluated three weeks after application
Procedure, shortened: as §3

[12] = test system: barnyard grass; assay: Test Example 5: herbicidal effect by foliage application, plastic box (Table 20, symbol H); assay type: in vivo, barnyard grass (Echinochloa crus-galli); settings: foliage application, 320 g/ha, evaluated three weeks after application
Procedure, shortened: as §3

[13] = test system: redroot pigweed; assay: Test Example 5: herbicidal effect by foliage application, plastic box (Table 20, symbol N); assay type: in vivo, redroot pigweed (Amaranthus retroflexus); settings: foliage application, 320 g/ha, evaluated three weeks after application
Procedure, shortened: as §3

[14] = test system: southern crabgrass; assay: Test Example 5: herbicidal effect by foliage application, plastic box (Table 20, symbol F); assay type: in vivo, southern crabgrass (Digitaria ciliaris); settings: foliage application, 320 g/ha, evaluated three weeks after application
Procedure, shortened: as §3

[15] = test system: velvetleaf; assay: Test Example 4: herbicidal effect by soil treatment (Table 19, symbol M); assay type: in vivo, velvetleaf (Abutilon theophrasti); settings: amount of applied herbicide 320 g/ha
Procedure, shortened: as §1

[16] = test system: persian speedwell; assay: Test Example 4: herbicidal effect by soil treatment (Table 19, symbol R); assay type: in vivo, Persian speedwell (Veronica persica); settings: amount of applied herbicide 320 g/ha
Procedure, shortened: as §1

[17] = test system: Italian ryegrass; assay: Test Example 5: herbicidal effect by foliage application, plastic box (Table 20, symbol K); assay type: in vivo, Italian ryegrass (Lolium multiflorum); settings: foliage application, 320 g/ha, evaluated three weeks after application
Procedure, shortened: as §3

[18] = test system: wild oat; assay: Test Example 4: herbicidal effect by soil treatment (Table 19, symbol I); assay type: in vivo, wild oat (Avena fatua); settings: amount of applied herbicide 320 g/ha
Procedure, shortened: as §1

[19] = test system: green foxtail; assay: Test Example 5: herbicidal effect by foliage application, plastic box (Table 20, symbol G); assay type: in vivo, green foxtail (Setaria viridis); settings: foliage application, 320 g/ha, evaluated three weeks after application
Procedure, shortened: as §3

[20] = test system: Chinese sprangletop; assay: Test Example 3: herbicidal effect by foliage application, Wagner pot (Table 18, symbol D); assay type: in vivo, chinese sprangletop (Leptochloa chinensis); settings: amount of applied herbicide 320 g/ha
Procedure, shortened: (§4)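 Plants were sown in alluvial soil held under 0.1–0.5 cm standing water and grown 14 days in a greenhouse at 25–30 °C. An emulsifiable formulation, water-diluted to the set dose, was then sprayed onto the foliage, and effects were scored three weeks later using previously defined criteria.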

[21] = test system: chickweed; assay: Test Example 5: herbicidal effect by foliage application, plastic box (Table 20, symbol P); assay type: in vivo, common chickweed (Stellaria media); settings: foliage application, 320 g/ha, evaluated three weeks after application
Procedure, shortened: as §3

[22] = test system: velvetleaf; assay: Test Example 5: herbicidal effect by foliage application, plastic box (Table 20, symbol M); assay type: in vivo, velvetleaf (Abutilon theophrasti); settings: foliage application, 320 g/ha, evaluated three weeks after application
Procedure, shortened: as §3

[23] = test system: oval-leafed pondweed; assay: Test Example 1: herbicidal activity, application before weed generation under submerged conditions (Table 16, symbol C); assay type: in vivo, oval-leafed pondweed (Monochoria vaginalis); settings: 320 g/ha applied herbicide
Procedure, shortened: as §2

[24] = test system: redroot pigweed; assay: Test Example 4: herbicidal effect by soil treatment (Table 19, symbol N); assay type: in vivo, redroot pigweed (Amaranthus retroflexus); settings: amount of applied herbicide 320 g/ha
Procedure, shortened: as §1

[25] = test system: Italian ryegrass; assay: Test Example 4: herbicidal effect by soil treatment (Table 19, symbol K); assay type: in vivo, Italian ryegrass (Lolium multiflorum); settings: amount of applied herbicide 320 g/ha
Procedure, shortened: as §1

[26] = test system: blackgrass; assay: Test Example 5: herbicidal effect by foliage application, plastic box (Table 20, symbol J); assay type: in vivo, blackgrass (Alopecurus myosuroides); settings: foliage application, 320 g/ha, evaluated three weeks after application
Procedure, shortened: as §3

[27] = test system: rice flat sedge; assay: Test Example 3: herbicidal effect by foliage application, Wagner pot (Table 18, symbol E); assay type: in vivo, rice flat sedge (Cyperus iria); settings: amount of applied herbicide 320 g/ha
Procedure, shortened: as §4

[28] = test system: barnyard grass; assay: Test Example 3: herbicidal effect by foliage application, Wagner pot (Table 18, symbol H); assay type: in vivo, barnyard grass (Echinochloa crus-galli); settings: amount of applied herbicide 320 g/ha
Procedure, shortened: as §4

[29] = test system: lambsquarters; assay: Test Example 4: herbicidal effect by soil treatment (Table 19, symbol O); assay type: in vivo, lambsquarters (Chenopodium album); settings: amount of applied herbicide 320 g/ha
Procedure, shortened: as §1

[30] = test system: windgrass; assay: Test Example 5: herbicidal effect by foliage application, plastic box (Table 20, symbol L); assay type: in vivo, windgrass (Apera spica-venti); settings: foliage application, 320 g/ha, evaluated three weeks after application
Procedure, shortened: as §3

SMILES	P: chickweed, herbicidal effect rating [1]	F: southern crabgrass, herbicidal effect rating [2]	Herbicidal effect on A: late watergrass (grade 0-5) [3]	H: barnyard grass, herbicidal effect rating [4]	L: windgrass, herbicidal effect rating [5]	J: blackgrass, herbicidal effect rating [6]	herbicidal effect on R: persian speedwell (criteria 0-5) [7]	herbicidal effect on I: wild oat (criteria 0-5) [8]	Herbicidal effect on B: Japanese bulrush (grade 0-5) [9]	G: green foxtail, herbicidal effect rating [10]	herbicidal effect on O: lambsquarters (criteria 0-5) [11]	herbicidal effect on H: barnyard grass (criteria 0-5) [12]	herbicidal effect on N: redroot pigweed (criteria 0-5) [13]	herbicidal effect on F: southern crabgrass (criteria 0-5) [14]	M: velvetleaf, herbicidal effect rating [15]	R: persian speedwell, herbicidal effect rating [16]	herbicidal effect on K: Italian ryegrass (criteria 0-5) [17]	I: wild oat, herbicidal effect rating [18]	herbicidal effect on G: green foxtail (criteria 0-5) [19]	herbicidal effect on D: Chinese sprangletop [20]	also measured
CCCC(=O)Oc1c(C)nn(C)c(=O)c1-c1c(-c2ccccc2F)sc2ccc(F)cc12 [2-200]	1 (Herbicidal rate of 5% or more and less than 20%)	1 (Herbicidal rate of 5% or more and less than 20%)	3 (Herbicidal rate of 40% or more and less than 70%)	3 (Herbicidal rate of 40% or more and less than 70%)	0 (Herbicidal rate of 5% or less (almost no effect))	0 (Herbicidal rate of 5% or less (almost no effect))	4 (Herbicidal rate of 70% or more and less than 90%)	0 (Herbicidal rate of 5% or less (almost no effect))	0 (Herbicidal rate of 5% or less (almost no effect))	1 (Herbicidal rate of 5% or more and less than 20%)	3 (Herbicidal rate of 40% or more and less than 70%)	3 (Herbicidal rate of 40% or more and less than 70%)	5 (Herbicidal rate of 90% or more (almost completely withered))	2 (Herbicidal rate of 20% or more and less than 40%)	0 (Herbicidal rate of 5% or less (almost no effect))	3 (Herbicidal rate of 40% or more and less than 70%)	4 (Herbicidal rate of 70% or more and less than 90%)	0 (Herbicidal rate of 5% or less (almost no effect))	4 (Herbicidal rate of 70% or more and less than 90%)	5 (Herbicidal rate of 90% or more (almost completely withered))	herbicidal effect on P: chickweed (criteria 0-5) [21]: 5 (Herbicidal rate of 90% or more (almost completely withered)); herbicidal effect on M: velvetleaf (criteria 0-5) [22]: 5 (Herbicidal rate of 90% or more (almost completely withered)); Herbicidal effect on C: oval-leafed pondweed (grade 0-5) [23]: 0 (Herbicidal rate of 5% or less (almost no effect)); N: redroot pigweed, herbicidal effect rating [24]: 4 (Herbicidal rate of 70% or more and less than 90%); K: Italian ryegrass, herbicidal effect rating [25]: 3 (Herbicidal rate of 40% or more and less than 70%); herbicidal effect on J: blackgrass (criteria 0-5) [26]: 1 (Herbicidal rate of 5% or more and less than 20%); herbicidal effect on E: rice flat sedge [27]: 5 (Herbicidal rate of 90% or more (almost completely withered)); herbicidal effect on H: barnyard grass [28]: 4 (Herbicidal rate of 70% or more and less than 90%); O: lambsquarters, herbicidal effect rating [29]: 4 (Herbicidal rate of 70% or more and less than 90%); herbicidal effect on L: windgrass (criteria 0-5) [30]: 3 (Herbicidal rate of 40% or more and less than 70%)
CCCC(=O)Oc1c(C)nn(C)c(=O)c1-c1c(-c2cccc(OC)c2)sc2ccc(F)cc12 [2-210]	4 (Herbicidal rate of 70% or more and less than 90%)	4 (Herbicidal rate of 70% or more and less than 90%)	3 (Herbicidal rate of 40% or more and less than 70%)	4 (Herbicidal rate of 70% or more and less than 90%)	0 (Herbicidal rate of 5% or less (almost no effect))	1 (Herbicidal rate of 5% or more and less than 20%)	5 (Herbicidal rate of 90% or more (almost completely withered))	0 (Herbicidal rate of 5% or less (almost no effect))	0 (Herbicidal rate of 5% or less (almost no effect))	4 (Herbicidal rate of 70% or more and less than 90%)	4 (Herbicidal rate of 70% or more and less than 90%)	4 (Herbicidal rate of 70% or more and less than 90%)	5 (Herbicidal rate of 90% or more (almost completely withered))	5 (Herbicidal rate of 90% or more (almost completely withered))	2 (Herbicidal rate of 20% or more and less than 40%)	5 (Herbicidal rate of 90% or more (almost completely withered))	4 (Herbicidal rate of 70% or more and less than 90%)	0 (Herbicidal rate of 5% or less (almost no effect))	5 (Herbicidal rate of 90% or more (almost completely withered))	5 (Herbicidal rate of 90% or more (almost completely withered))	herbicidal effect on P: chickweed (criteria 0-5) [21]: 5 (Herbicidal rate of 90% or more (almost completely withered)); herbicidal effect on M: velvetleaf (criteria 0-5) [22]: 5 (Herbicidal rate of 90% or more (almost completely withered)); Herbicidal effect on C: oval-leafed pondweed (grade 0-5) [23]: 0 (Herbicidal rate of 5% or less (almost no effect)); N: redroot pigweed, herbicidal effect rating [24]: 5 (Herbicidal rate of 90% or more (almost completely withered)); K: Italian ryegrass, herbicidal effect rating [25]: 4 (Herbicidal rate of 70% or more and less than 90%); herbicidal effect on J: blackgrass (criteria 0-5) [26]: 3 (Herbicidal rate of 40% or more and less than 70%); herbicidal effect on E: rice flat sedge [27]: 5 (Herbicidal rate of 90% or more (almost completely withered)); herbicidal effect on H: barnyard grass [28]: 5 (Herbicidal rate of 90% or more (almost completely withered)); O: lambsquarters, herbicidal effect rating [29]: 1 (Herbicidal rate of 5% or more and less than 20%); herbicidal effect on L: windgrass (criteria 0-5) [30]: 5 (Herbicidal rate of 90% or more (almost completely withered))
